Test results taken from ChEMBL document CHEMBL6127036, “Chaperoning system: Intriguing target to modulate the expression of CFTR in cystic fibrosis” (Eur J Med Chem, 2024).
pEC50: −log10 of the molar value.

Key:
[1] = Inhibition of HSP70 (unknown origin) expressed in human HeLa cells; format: cell-based
[2] = test system: Cystic fibrosis transmembrane conductance regulator (Homo sapiens), P13569 [F508del]; assay: Inhibition of CFTR F508del mutant (unknown origin) in FRT cells; format: cell-based
[3] = biological target: Cystic fibrosis transmembrane conductance regulator (Homo sapiens) (UniProt P13569); assay: Inhibition of CFTR (unknown origin) at 10 uM relative to control
[4] = biological target: Cystic fibrosis transmembrane conductance regulator (Homo sapiens) (UniProt P13569); assay: Activation of human CFTR expressed in rat FRT cells at 30 uM relative to control; format: cell-based; settings: filed as activator

Sequence of Cystic fibrosis transmembrane conductance regulator (Homo sapiens), P13569 [F508del] (P13569 as listed by the source): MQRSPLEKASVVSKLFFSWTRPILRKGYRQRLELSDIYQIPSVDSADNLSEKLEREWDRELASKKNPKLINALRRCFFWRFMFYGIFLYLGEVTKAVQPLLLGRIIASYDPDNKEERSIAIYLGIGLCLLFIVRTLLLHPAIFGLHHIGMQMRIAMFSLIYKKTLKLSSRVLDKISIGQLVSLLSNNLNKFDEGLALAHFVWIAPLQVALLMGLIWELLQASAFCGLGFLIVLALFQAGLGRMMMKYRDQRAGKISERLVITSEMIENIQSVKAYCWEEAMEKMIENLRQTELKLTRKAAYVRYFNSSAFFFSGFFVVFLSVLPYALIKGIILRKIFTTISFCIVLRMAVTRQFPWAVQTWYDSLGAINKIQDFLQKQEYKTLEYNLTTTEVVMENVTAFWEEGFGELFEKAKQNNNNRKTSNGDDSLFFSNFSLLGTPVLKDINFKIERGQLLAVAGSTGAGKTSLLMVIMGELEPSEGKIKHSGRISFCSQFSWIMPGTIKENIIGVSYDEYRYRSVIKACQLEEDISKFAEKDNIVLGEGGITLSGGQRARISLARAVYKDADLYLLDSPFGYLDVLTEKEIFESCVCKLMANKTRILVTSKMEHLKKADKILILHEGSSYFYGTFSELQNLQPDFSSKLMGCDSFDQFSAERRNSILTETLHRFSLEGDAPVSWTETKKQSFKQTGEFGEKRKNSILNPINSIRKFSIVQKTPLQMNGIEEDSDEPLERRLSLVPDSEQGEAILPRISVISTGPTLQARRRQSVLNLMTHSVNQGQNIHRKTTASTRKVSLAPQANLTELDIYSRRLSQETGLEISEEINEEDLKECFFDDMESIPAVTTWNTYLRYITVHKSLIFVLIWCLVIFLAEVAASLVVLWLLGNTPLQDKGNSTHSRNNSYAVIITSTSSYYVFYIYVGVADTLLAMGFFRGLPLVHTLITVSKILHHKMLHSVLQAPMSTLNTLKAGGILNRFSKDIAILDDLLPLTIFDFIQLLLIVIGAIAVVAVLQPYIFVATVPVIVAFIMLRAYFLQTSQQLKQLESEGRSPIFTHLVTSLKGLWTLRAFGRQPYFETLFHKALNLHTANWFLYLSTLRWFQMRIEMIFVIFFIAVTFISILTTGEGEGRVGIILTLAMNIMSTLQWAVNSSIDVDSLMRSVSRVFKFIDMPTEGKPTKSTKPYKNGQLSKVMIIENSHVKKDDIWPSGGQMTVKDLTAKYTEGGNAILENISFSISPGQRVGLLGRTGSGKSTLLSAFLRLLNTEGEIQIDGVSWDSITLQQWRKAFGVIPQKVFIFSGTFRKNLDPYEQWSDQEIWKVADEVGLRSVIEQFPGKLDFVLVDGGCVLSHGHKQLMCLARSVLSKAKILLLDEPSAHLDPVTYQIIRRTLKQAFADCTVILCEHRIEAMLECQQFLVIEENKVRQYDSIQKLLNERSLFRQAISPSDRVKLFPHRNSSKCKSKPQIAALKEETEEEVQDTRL
Sequence of Cystic fibrosis transmembrane conductance regulator (Homo sapiens) (P13569 whole entry, looked up): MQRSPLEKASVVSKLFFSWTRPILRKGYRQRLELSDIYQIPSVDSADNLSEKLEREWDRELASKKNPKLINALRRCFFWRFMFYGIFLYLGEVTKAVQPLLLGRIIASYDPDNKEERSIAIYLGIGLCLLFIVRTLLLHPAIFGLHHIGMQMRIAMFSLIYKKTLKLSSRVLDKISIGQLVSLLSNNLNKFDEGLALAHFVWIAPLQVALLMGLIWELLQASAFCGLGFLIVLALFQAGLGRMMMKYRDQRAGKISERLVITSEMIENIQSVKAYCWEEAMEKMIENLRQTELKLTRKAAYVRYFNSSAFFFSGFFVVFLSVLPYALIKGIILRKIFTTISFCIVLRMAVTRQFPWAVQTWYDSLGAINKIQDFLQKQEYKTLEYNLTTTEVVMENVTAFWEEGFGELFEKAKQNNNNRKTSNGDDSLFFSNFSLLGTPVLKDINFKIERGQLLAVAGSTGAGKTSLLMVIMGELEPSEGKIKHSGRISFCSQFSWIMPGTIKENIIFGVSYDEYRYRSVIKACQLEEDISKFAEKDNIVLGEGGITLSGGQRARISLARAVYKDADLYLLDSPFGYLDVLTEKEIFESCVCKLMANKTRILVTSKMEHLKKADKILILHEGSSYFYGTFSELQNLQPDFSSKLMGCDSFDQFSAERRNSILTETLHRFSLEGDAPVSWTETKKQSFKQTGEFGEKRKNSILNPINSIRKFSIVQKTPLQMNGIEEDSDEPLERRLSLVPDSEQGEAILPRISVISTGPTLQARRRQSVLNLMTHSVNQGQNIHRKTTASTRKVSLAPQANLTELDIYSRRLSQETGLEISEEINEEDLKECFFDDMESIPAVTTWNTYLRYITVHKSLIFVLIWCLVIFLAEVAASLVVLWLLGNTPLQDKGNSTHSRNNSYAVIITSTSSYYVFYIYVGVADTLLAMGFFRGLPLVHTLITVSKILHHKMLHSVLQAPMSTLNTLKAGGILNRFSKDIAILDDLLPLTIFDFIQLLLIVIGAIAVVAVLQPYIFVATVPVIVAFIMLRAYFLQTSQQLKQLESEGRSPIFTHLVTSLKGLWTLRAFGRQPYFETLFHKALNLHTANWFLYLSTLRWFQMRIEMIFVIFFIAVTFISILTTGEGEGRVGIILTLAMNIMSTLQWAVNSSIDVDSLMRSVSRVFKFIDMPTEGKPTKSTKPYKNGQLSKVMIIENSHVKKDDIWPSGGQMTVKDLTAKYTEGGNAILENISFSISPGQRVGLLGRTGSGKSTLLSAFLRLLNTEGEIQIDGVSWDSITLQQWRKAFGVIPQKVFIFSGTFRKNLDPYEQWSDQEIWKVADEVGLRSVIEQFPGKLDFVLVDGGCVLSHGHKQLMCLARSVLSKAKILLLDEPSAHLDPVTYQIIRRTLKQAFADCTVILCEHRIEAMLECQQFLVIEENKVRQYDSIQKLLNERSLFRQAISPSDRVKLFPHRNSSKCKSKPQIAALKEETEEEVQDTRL

SMILES | pEC50 [1] | fold change (FC) [2] | further results
N=C(N)NCCCC[C@H](O)CC(=O)N[C@@H](O)C(=O)NCCCCNCCCN | 5.27 |  | 
N#CCc1nnc(-c2ccccn2)[nH]1 |  | 25 | 
CCN(CC)c1ccc(N/N=C2\C(=O)C=Cc3ccccc32)cc1 |  | 15 | 
N#CC1=C(N)Oc2[nH]nc(-c3ccc(F)cc3)c2C1c1c[nH]nc1-c1ccc(F)cc1 (stereo unspecified) |  |  | inhibition [3]: 70%
N=C(N)NCCCCCCC(=O)N[C@@H](O)C(=O)NCCCCNCCCN | 5.27 |  | 
O=C1CCC[C@@H]2[C@H]3CCCN4CCC[C@@H](CN12)[C@@H]34 |  |  | Activity [4]: 53%
